Patent publication US20060069132A1, “Azolecarboxamide herbicides” (priority 2004, published 2006)

Tests used:
[1] = test system: ducksalad; experiment: Test C flooded paddy test; format: in vivo, Heteranthera limosa
[2] = test system: barnyardgrass; experiment: Test C flooded paddy test; format: in vivo, Echinochloa crus-galli
In short: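 Visual rating, 0 (no effect) to 100 (complete control), vs. controls at 12–14 d in greenhouse. Postemergence: 1–4-leaf plants, 2–18 cm. Paddy: flooded, barnyardgrass at 2-leaf stage.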

[3] = test system: morningglory; experiment: Test B pre-/postemergence herbicide test; format: in vivo, Ipomoea coccinea; details: for Morningglory plant response rating: postemergence
In short: (§1)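 Species tested were Echinochloa crus-galli, Ipomoea coccinea, Xanthium strumarium and Oryza sativa, treated both before emergence and at the 1- to 4-leaf stage; rice and barnyardgrass were also tested under flooding at 2 leaves. Greenhouse incubation lasted 13–15 days before visual 0–100 scoring.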

[4] = test system: barnyardgrass; experiment: Test B pre-/postemergence herbicide test; format: in vivo, Echinochloa crus-galli; details: for Barnyardgrass plant response rating: postemergence, scale 0 (no effect) to 100 (complete control)
In short: as §1

[5] = test system: cocklebur; experiment: Test B pre-/postemergence herbicide test; format: in vivo, Xanthium strumarium; details: for Cocklebur plant response rating: postemergence, scale 0 (no effect) to 100 (complete control)
In short: as §1

[6] = test system: Surinam grass; experiment: Test B pre-/postemergence herbicide test; format: in vivo, Urochloa decumbens; details: for Surinam Grass plant response rating: postemergence
In short: (§2)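 Seeds were planted and treated preemergence with compounds formulated in a non-phytotoxic solvent mixture containing surfactant, while plants at the 1- to 4-leaf stage (2 to 18 cm) received postemergence sprays. Flooded paddy plants were grown to the 2-leaf stage. After 13 to 15 days in a greenhouse, injury was visually rated 0–100 against untreated controls.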

[7] = test system: rice; experiment: Test C flooded paddy test; format: in vivo, Oryza sativa
In short: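 Plants were grown to the 1- to 4-leaf stage (2–18 cm) and then treated postemergence, or grown to the 2-leaf stage for the flooded paddy test. They were held in a greenhouse for 12 to 14 days and then scored by eye against controls, where 0 is no effect and 100 is complete control.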

[8] = test system: rice; experiment: Test B flooded paddy test; format: in vivo, Oryza sativa; details: 1000 g ai/ha, scale 0 to 100 (0 no effect, 100 complete control)
In short: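 Visual ratings, 0 (no effect) to 100 (complete control), made versus controls after 13–15 d greenhouse. Paddy plants treated at 2-leaf stage; postemergence plants at 1- to 4-leaf stage, 2–18 cm tall.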

[9] = test system: pigweed; experiment: Test B pre-/postemergence herbicide test; format: in vivo, Amaranthus retroflexus; details: for Pigweed plant response rating: postemergence
In short: as §2

[10] = test system: barnyardgrass; experiment: Test B flooded paddy test; format: in vivo, Echinochloa crus-galli; details: 1000 g ai/ha, scale 0 to 100 (0 no effect, 100 complete control)
In short: (§3)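 Plants grow to 1- to 4-leaf stage (2–18 cm) for postemergence spraying, or to 2-leaf stage for the paddy test. Formulated compound is applied. Greenhouse holding lasts 13–15 days. Response is scored visually relative to controls, 0 no effect to 100 complete control; a dash means no result.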

[11] = test system: corn; experiment: Test B pre-/postemergence herbicide test; format: in vivo, Zea mays; details: for Corn plant response rating: postemergence
In short: as §2

[12] = test system: small flower umbrella sedge; experiment: Test B flooded paddy test; format: in vivo, Cyperus difformis; details: 1000 g ai/ha, scale 0 to 100 (0 no effect, 100 complete control)
In short: as §3

[13] = test system: wheat; experiment: Test B postemergence herbicide test; format: in vivo, Triticum aestivum; parameters: key to Wheat plant response rating: 0 = no effect, 100 = complete control; details: postemergence
In short: as §3

[14] = test system: wild oat; experiment: Test B postemergence herbicide test; format: in vivo, Avena fatua; details: postemergence
In short: as §3

[15] = test system: blackgrass; experiment: Test B postemergence herbicide test; format: in vivo, Alopecurus myosuroides; details: postemergence, visual rating, scale 0 (no effect) to 100 (complete control)
In short: as §3

[16] = test system: lambsquarters; experiment: Test B pre-/postemergence herbicide test; format: in vivo, Chenopodium album; details: for Lambsquarters plant response rating: postemergence
In short: as §2

[17] = test system: rice; experiment: Test B pre-/postemergence herbicide test; format: in vivo, Oryza sativa; details: 0 = no effect, 100 = complete control, preemergence
In short: as §2

[18] = test system: velvetleaf; experiment: Test B pre-/postemergence herbicide test; format: in vivo, Abutilon theophrasti; details: for Velvetleaf plant response rating: postemergence
In short: as §2

[19] = test system: giant foxtail; experiment: Test B pre-/postemergence herbicide test; format: in vivo, Setaria faberi; details: for Foxtail, Giant plant response rating: postemergence
In short: as §2

[20] = test system: large crabgrass; experiment: Test B pre-/postemergence herbicide test; format: in vivo, Digitaria sanguinalis; details: for Crabgrass, Large plant response rating: postemergence
In short: as §2

[21] = test system: smallflower umbrella sedge; experiment: Test C flooded paddy test; format: in vivo, Cyperus difformis
[22] = test system: ducksalad; experiment: Test B flooded paddy test; format: in vivo, Heteranthera limosa; details: 1000 g ai/ha, scale 0 to 100 (0 no effect, 100 complete control)
In short: as §3

[23] = 125 g ai/ha, scale 0 to 100 (0 no effect, 100 complete control)
[24] = 250 g ai/ha, scale of 0 to 100, 0 is no effect, 100 is complete control
[25] = 500 g ai/ha, visual rating after 12 to 14 days, scale 0 to 100 (0 no effect, 100 complete control)
[26] = 125 g ai/ha, 0 = no effect, 100 = complete control, preemergence
[27] = 500 g ai/ha, visual rating, 0 = no effect, 100 = complete control, preemergence
[28] = 125 g ai/ha, visual rating, scale 0 (no effect) to 100 (complete control)
[29] = 500 g ai/ha, scale 0 to 100, 0 is no effect, 100 is complete control

## CCNC(=O)c1ccc(OC)c(NC(=O)c2cc(C(C)(C)C)nn2CC)n1 [Compound 266]
[1]; 62 g ai/ha, scale 0 to 100
  Ducksalad plant response rating: 0
[1]; [23]
  Ducksalad plant response rating: 15
[1]; [24]
  Ducksalad plant response rating: 75
[1]; [25]
  Plant response rating, Ducksalad: 95
[2]; 62 g ai/ha, scale 0 to 100 (0 no effect, 100 complete control)
  Barnyardgrass plant response rating: 0
[2]; [23]
  Barnyardgrass plant response rating: 25
[2]; [24]
  Barnyardgrass plant response rating: 50
[2]; [25]
  Plant response rating, Barnyardgrass: 70
[3]; [26]
  Morningglory plant response rating (0 to 100 scale): 0
[3]; [27]
  Plant response rating, Morningglory: 10
[3]; [28]
  Morningglory plant response rating: 30
[3]; [29]
  Morningglory plant response rating: 50
[4]; [26]
  Barnyardgrass plant response rating (0 to 100 scale): 60
[4]; [27]
  Plant response rating, Barnyardgrass: 80
[4]; 125 g ai/ha, visual rating
  Barnyardgrass plant response rating: 0
[4]; 500 g ai/ha, visual rating
  Barnyardgrass plant response rating: 0
[5]; [26]
  Cocklebur plant response rating (0 to 100 scale): 0
[5]; [27]
  Plant response rating, Cocklebur: 10
[5]; 125 g ai/ha, visual rating
  Cocklebur plant response rating: 0
[5]; 500 g ai/ha, visual rating
  Cocklebur plant response rating: 0
[6]; [26]
  Surinam Grass plant response rating (0 to 100 scale): 60
[6]; [27]
  Plant response rating, Surinam Grass: 90
[6]; [28]
  Surinam Grass plant response rating: 10
[6]; [29]
  Surinam Grass plant response rating: 20
[7]; 62 g ai/ha, scale 0 to 100
  Rice plant response rating: 0
[7]; [23]
  Rice plant response rating: 10
[7]; [24]
  Rice plant response rating: 65
[7]; [25]
  Plant response rating, Rice: 80
[8]
  Rice plant response rating: 80
[9]; [26]
  Pigweed plant response rating (0 to 100 scale): 100
[9]; [27]
  Plant response rating, Pigweed: 100
[9]; [28]
  Pigweed plant response rating: 20
[9]; [29]
  Pigweed plant response rating: 100
[10]
  Barnyardgrass plant response rating: 80
[11]; [26]
  Corn plant response rating (0 to 100 scale): 0
[11]; [27]
  Plant response rating, Corn: 90
[11]; [28]
  Corn plant response rating: 0
[11]; [29]
  Corn plant response rating: 0
[12]
  Sedge, Umbrella plant response rating: 80
[13]; [28]
  Wheat plant response rating: 20
[13]; [29]
  Wheat plant response rating: 30
[14]; [28]
  Oat, Wild plant response rating: 10
[14]; [29]
  Oat, Wild plant response rating: 20
[15]; 125 g ai/ha
  Blackgrass plant response rating: 20
[15]; 500 g ai/ha
  Blackgrass plant response rating: 20
[16]; [26]
  Lambsquarters plant response rating (0 to 100 scale): 100
[16]; [27]
  Plant response rating, Lambsquarters: 100
[16]; [28]
  Lambsquarters plant response rating: 60
[16]; [29]
  Lambsquarters plant response rating: 100
[17]; 125 g ai/ha
  Rice plant response rating (0 to 100 scale): 70
[17]; 500 g ai/ha, visual rating
  Plant response rating, Rice: 80
[18]; [26]
  Velvetleaf plant response rating (0 to 100 scale): 20
[18]; [27]
  Plant response rating, Velvetleaf: 100
[18]; [28]
  Velvetleaf plant response rating: 0
[18]; [29]
  Velvetleaf plant response rating: 0
[19]; [26]
  Foxtail, Giant plant response rating (0 to 100 scale): 80
[19]; [27]
  Plant response rating, Foxtail, Giant: 100
[19]; [28]
  Foxtail, Giant plant response rating: 0
[19]; [29]
  Foxtail, Giant plant response rating: 20
[20]; [26]
  Crabgrass, Large plant response rating (0 to 100 scale): 50
[20]; [27]
  Plant response rating, Crabgrass, Large: 100
[20]; [28]
  Crabgrass, Large plant response rating: 0
[20]; [29]
  Crabgrass, Large plant response rating: 0
[21]; 62 g ai/ha, scale 0 to 100
  Sedge, Umbrella plant response rating: 0
[21]; [23]
  Sedge, Umbrella plant response rating: 20
[21]; [24]
  Sedge, Umbrella plant response rating: 55
[21]; [25]
  Plant response rating, Sedge, Umbrella: 80
[22]
  Ducksalad plant response rating: 90
